Test results reported in BindingDB's records for PubMed 36074125 (Purdue University, 2022).

Target: T1, N-terminal Xaa-Pro-Lys N-methyltransferase 1 (Homo sapiens, UniProt Q9BV86)
T1 sequence (Q9BV86 whole entry): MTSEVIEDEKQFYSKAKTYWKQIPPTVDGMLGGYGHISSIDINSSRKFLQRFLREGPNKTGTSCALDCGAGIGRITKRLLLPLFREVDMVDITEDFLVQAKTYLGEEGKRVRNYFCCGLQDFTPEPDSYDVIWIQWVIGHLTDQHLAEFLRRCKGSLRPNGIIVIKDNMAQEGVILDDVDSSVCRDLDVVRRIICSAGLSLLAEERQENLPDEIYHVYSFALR
Assay: Inhibition of full length NTMT1 (1 to 222 residues) (unknown origin) expressed in Escherichia coli BL21 (DE3) using GPKRIA as substrate preincubated for 10 mins followed by substrate addition measured after 15 mins by microplate reader method

Row | Structure (SMILES) | IC50 [nM]
1 | CC(C)(NC(=O)O[C@@H]1CN2CCC1CC2)c1csc(-c2ccc(Cl)cc2)n1 | 910
2 | CC(C)(NC(=O)O[C@@H]1CN2CCC1CC2)c1csc(-c2ccc(C(F)(F)F)cc2)n1 | 3200
